# Measured values reported in patent US8101768B2, “Cyclic amine compound and pest control agent” (Nippon Soda Co., Ltd., priority 2004, dated 2012).
# Test system: organophosphorous agent resistant two-spotted spider mites
# Test: Effect on Two-spotted Spider Mite (spray on kidney bean leaves)
# Format: in vivo
# Conditions: 125 ppm, water dispersible powder of Formulation Example 1 sprayed, 17 female adults, 25° C., 65% humidity, 3 days
# Description: Effect on Two-spotted Spider Mite
# 17 female adults of organophosphorous agent resistant two-spotted spider mites were inoculated onto the first leaves of kidney beans seeded onto 3.5 inch pots and germinated 7 to 10 days before, onto which each of liquid agents, diluted with water so as to adjust the respective concentration of the chemical compounds to 125 ppm according to the formulation of the water dispersible powder shown in the aforementioned Formulation Example 1, was sprayed. After they were left in a thermostatic chamber at 25° C. in 65% humidity for 3 days, the rate of killed adults was investigated. The examination was repeated twice. As the results, the following chemical compounds killed 100% of the adults.
row,Compound,rate of killed adults [%]
1,O=C(OC1CCCC1)c1cc(C(F)(F)F)ccc1OC1CC2CCC(C1)N2c1ccc(C(F)(F)F)cn1 (stereo not drawn) [2-223],100
2,CON=Cc1cc(C(F)(F)F)ccc1OC1CC2CCC(C1)N2c1ccc(C(F)(F)F)cn1 (stereo not drawn) [2-211],100
3,CCC1COC(c2cc(C(F)(F)F)ccc2O[C@@H]2[C@@H]3CC[C@H]2CN(c2ccc(C(F)(F)F)cn2)C3)N1 (stereo partly drawn) [5-263],100
4,COCCCc1cc(C(F)(F)F)ccc1OC1CC2CCC(C1)N2c1ccc(C(F)(F)F)cn1 (stereo not drawn) [2-190],100
5,CS(=O)(=O)Oc1cc(C(F)(F)F)ccc1OC1CC2CCC(C1)N2c1ccc(C(F)(F)F)cn1 (stereo not drawn) [2-151],100
6,FC(F)(F)c1ccc(N2C3CCC2CC(Oc2ccc(C(F)(F)F)cc2OCCCl)C3)nc1 (stereo not drawn) [2-138],100
7,CCCOc1cc(C(F)(F)F)cc(Cl)c1OC1CCN(c2ccc(C(F)(F)F)cn2)CC1 [1-18],100
8,FC(F)(F)c1ccc(N2CC3CCC(C2)C3Oc2ccc(C(F)(F)F)cc2OCc2cccnc2)nc1 (stereo not drawn) [5-211],100
9,FC(F)(F)c1ccc(N2C3CCC2CC(Oc2ccc(C(F)(F)F)cc2OCC=CCl)C3)nc1 (mixture of isomers) [2-148],100
10,C=CCCOc1cc(C(F)(F)F)ccc1OC1C2CCC1CN(c1ccc(C(F)(F)F)cn1)C2 (stereo not drawn) [5-176],100
11,CCCCOc1cc(C(F)(F)F)ccc1OC1CC2CCC(C1)N2c1ccc(C(F)(F)F)cn1 (stereo not drawn) [2-97],100
12,FC(F)(F)c1ccc(N2C[C@H]3CC[C@@H](C2)[C@@H]3Oc2ccc(C(F)(F)F)cc2OCc2ccccc2)nc1 [5-106],100
13,CC(CCl)OC(=O)c1cc(C(F)(F)F)ccc1OC1CC2CCC(C1)N2c1ccc(C(F)(F)F)cn1 (stereo not drawn) [2-233],100
14,"CCC=Cc1cc(C(F)(F)F)ccc1OC1CC2CCC(C1)N2c1ccc(C(F)(F)F)cn1 (stereo not drawn) [2-186, 3α-[2-(buten-1-yl)-4-(trifluoromethyl)phenoxy]-8-[5-(trifluoromethyl)-2-pyridyl]-8-azabicyclo[3.2.1]octane]",100
15,CC(C)=CCOc1cc(C(F)(F)F)ccc1OC1C2CCC1CN(c1ccc(C(F)(F)F)cn1)C2 (stereo not drawn) [5-139],100
16,C=CCc1cc(C(F)(F)F)ccc1O[C@@H]1[C@@H]2CC[C@H]1CN(c1ccc(C(F)(F)F)cn1)C2 [5-75],100
17,CCOc1cc(C(F)(F)F)ccc1OC1CCN(c2ccc(Br)cn2)CC1 [1-91],100
18,CC(=O)COc1cc(C(F)(F)F)ccc1O[C@@H]1[C@@H]2CC[C@H]1CN(c1ccc(C(F)(F)F)cn1)C2 [5-126],100
19,FC(F)(F)c1ccc(N2CC3CCC(C2)C3Oc2ccc(C(F)(F)F)cc2OCc2ccsc2)nc1 (stereo not drawn) [5-208],100
20,"CCCCc1cc(C(F)(F)F)ccc1O[C@H]1C[C@H]2CC[C@@H](C1)N2c1ccc(C(F)(F)F)cn1 [2-187, 3α-[2-butyl-4-(trifluoromethyl)phenoxy]-8-[5-(trifluoromethyl)-2-pyridyl]-8-azabicyclo[3.2.1]octane]",100
21,CCC(C)C(O)c1cc(C(F)(F)F)ccc1OC1CC2CCC(C1)N2c1ccc(C(F)(F)F)cn1 (stereo not drawn) [2-194],100
22,CCCCOCc1cc(C(F)(F)F)ccc1OC1C2CCC1CN(c1ccc(C(F)(F)F)cn1)C2 (stereo not drawn) [5-223],100
23,C=CC(C)OC(=O)c1cc(C(F)(F)F)ccc1OC1CC2CCC(C1)[N+]2([O-])c1ccc(C(F)(F)F)cn1 (stereo not drawn) [2-247],100

row,Compound,rate of killed adults [%]
1,CCOc1cc(C(F)(F)F)ccc1OC1CCN(c2ccc(Cl)cn2)CC1 [1-90],100
2,COCOCCOc1cc(C(F)(F)F)ccc1OC1CCN(c2ccc(C(F)(F)F)cn2)CC1 [1-117],100
3,COC(C)CCc1cc(C(F)(F)F)ccc1OC1CC2CCC(C1)N2c1ccc(C(F)(F)F)cn1 (stereo not drawn) [2-192],100
4,CC(F)COc1cc(C(F)(F)F)ccc1OC1CC2CCC(C1)N2c1ccc(C(F)(F)F)cn1 (stereo not drawn) [2-181],100
5,CCCOc1cc(C(F)(F)F)ccc1O[C@@H]1[C@@H]2CC[C@H]1CN(c1ccc(C#N)cn1)C2 [5-96],100
6,CC(CBr)OC(=O)c1cc(C(F)(F)F)ccc1OC1CC2CCC(C1)N2c1ccc(C(F)(F)F)cn1 (stereo not drawn) [2-236],100
7,CC=CCOc1cc(C(F)(F)F)ccc1OC1CC2CCC(C1)N2c1ccc(C(F)(F)F)cn1 (mixture of isomers) [2-145],100
8,FC(F)(F)c1ccc(N2CCC(Oc3c(Cl)cc(C(F)(F)F)cc3Cl)CC2)nc1 [1-16],100
9,Cc1cc(C)c(OC2CCN(c3ccc(C(F)(F)F)cn3)CC2)c(C)c1 [1-47],100
10,CCS(=O)(=O)Oc1cc(C(F)(F)F)ccc1OC1CC2CCC(C1)N2c1ccc(C(F)(F)F)cn1 (stereo not drawn) [2-152],100
11,FC(F)(F)c1ccc(N2CC3CCC(C2)C3Oc2ccc(C(F)(F)F)cc2OCc2ccoc2)nc1 (stereo not drawn) [5-207],100
12,FC(F)(F)c1ccc(N2C[C@H]3CC[C@@H](C2)[C@@H]3Oc2ccc(C(F)(F)F)cc2OC2CC2(Cl)Cl)nc1 (stereo partly drawn) [5-104],100
13,COC(C)COc1cc(C(F)(F)F)ccc1OC1CC2CCC(C1)N2c1ccc(C(F)(F)F)cn1 (stereo not drawn) [2-130],100
14,CCCOc1cc(C(F)(F)F)ccc1OC1CC2CCC(C1)N2c1ccc(C)cn1 (stereo not drawn) [2-89],100
15,CCNc1cc(C(F)(F)F)ccc1OC1CCN(c2ccc(C(F)(F)F)cn2)CC1 [1-172],100
16,COCC(C)OC(=O)c1cc(C(F)(F)F)ccc1OC1CC2CCC(C1)N2c1ccc(C(F)(F)F)cn1 (stereo not drawn) [2-234],100
17,FC(F)(F)c1ccc(N2CC3CCC(C2)C3Oc2ccc(C(F)(F)F)cc2OCc2ccco2)nc1 (stereo not drawn) [5-206],100
18,CC(=O)OCCOc1cc(C(F)(F)F)ccc1OC1C2CCC1CN(c1ccc(C(F)(F)F)cn1)C2 (stereo not drawn) [5-134],100
19,O=C(OCC(F)(F)F)c1cc(C(F)(F)F)ccc1OC1CC2CCC(C1)N2c1ccc(C(F)(F)F)cn1 (stereo not drawn) [2-240],100
20,CSCOc1cc(C(F)(F)F)ccc1OC1CC2CCC(C1)N2c1ccc(C(F)(F)F)cn1 (stereo not drawn) [2-182],100
21,CCC(C)OCc1cc(C(F)(F)F)ccc1O[C@@H]1[C@@H]2CC[C@H]1CN(c1ccc(C(F)(F)F)cn1)C2 (stereo partly drawn) [5-242],100
22,CCCOc1cc(C(F)(F)F)ccc1OC1CC2CCC(C1)N2c1ccc(Cl)cn1 (stereo not drawn) [2-85],100
23,CCCN(C)c1cc(C(F)(F)F)ccc1OC1C2CCC1CN(c1ccc(C(F)(F)F)cn1)C2 (stereo not drawn) [5-191],100

row,Compound,rate of killed adults [%]
1,CCC1COC(c2cc(C(F)(F)F)ccc2OC2CC3CCC(C2)N3c2ccc(C(F)(F)F)cn2)=N1 (stereo not drawn) [2-220],100
2,FC(F)(F)c1ccc(N2CC3CCC(C2)C3Oc2ccc(C(F)(F)F)cc2C2CC=CO2)nc1 (stereo not drawn) [5-235],100
3,CN(C)C(=O)Sc1cc(C(F)(F)F)ccc1OC1CC2CCC(C1)N2c1ccc(C(F)(F)F)cn1 (stereo not drawn) [2-157],100
4,COCOCc1cc(O[C@@H]2[C@@H]3CC[C@H]2CN(c2ccc(C(F)(F)F)cn2)C3)ccc1C(F)(F)F [5-70],100
5,CCCCC(O)c1cc(C(F)(F)F)ccc1OC1C2CCC1CN(c1ccc(C(F)(F)F)cn1)C2 (stereo not drawn) [5-238],100
6,CC(COc1cc(C(F)(F)F)ccc1OC1C2CCC1CN(c1ccc(C(F)(F)F)cn1)C2)=NO (stereo not drawn) [5-183],100
7,CCCNc1cc(C(F)(F)F)ccc1OC1CCN(c2ccc(C(F)(F)F)cn2)CC1 [1-173],100
8,COCCOC(=O)c1cc(C(F)(F)F)ccc1OC1CC2CCC(C1)N2c1ccc(C(F)(F)F)cn1 (stereo not drawn) [2-230],100
9,CCC(=O)c1cc(C(F)(F)F)ccc1OC1CCN(c2ccc(C(F)(F)F)cn2)CC1 [1-179],100
10,FC(F)(F)c1ccc(N2CC3CCC(C2)C3Oc2ccc(C(F)(F)F)cc2OCc2ccccn2)nc1 (stereo not drawn) [5-212],100
11,CC(=O)OC(CC(C)C)c1cc(C(F)(F)F)ccc1O[C@@H]1[C@@H]2CC[C@H]1CN(c1ccc(C(F)(F)F)cn1)C2 (stereo partly drawn) [5-258],100
12,CCCN(CCC)c1cc(C(F)(F)F)ccc1OC1CCN(c2ccc(C(F)(F)F)cn2)CC1 [1-174],100
13,FC(F)COc1cc(C(F)(F)F)ccc1OC1CC2CCC(C1)N2c1ccc(C(F)(F)F)cn1 (stereo not drawn) [2-246],100
14,COCC(C)Oc1cc(C(F)(F)F)ccc1OC1CC2CCC(C1)N2c1ccc(C(F)(F)F)cn1 (stereo not drawn) [2-178],100
15,FC(F)(F)c1ccc(N2[C@@H]3CC[C@H]2C[C@@H](Oc2ccc(C(F)(F)F)cc2SCC2CC2)C3)nc1 [2-166],100
16,Cc1ccc(N2CC3CCC(C2)C3Oc2ccc(C(F)(F)F)cc2OC2CC2(Cl)Cl)nc1 (stereo not drawn) [5-210],100
17,FC(F)(F)c1ccc(N2CC3CCC(C2)C3Oc2ccc(C(F)(F)F)cc2COC2CCOC2)nc1 (stereo not drawn) [5-231],100
18,CCCOc1cc(C(F)(F)F)ccc1OC1CC2CCC(C1)N2c1ccc(C#N)cn1 (stereo not drawn) [2-93],100
19,CCC(C)Oc1cc(C(F)(F)F)ccc1OC1CC2CCC(C1)N2c1ccc(C(F)(F)F)cn1 (stereo not drawn) [2-177],100
20,CC#CCOc1cc(C(F)(F)F)ccc1OC1C2CCC1CN(c1ccc(C(F)(F)F)cn1)C2 (stereo not drawn) [5-232],100
21,CC(C)(C)C(=O)Oc1cc(C(F)(F)F)ccc1OC1C2CCC1CN(c1ccc(C(F)(F)F)cn1)C2 (stereo not drawn) [5-200],100
22,CC(COc1cc(C(F)(F)F)ccc1OC1C2CCC1CN(c1ccc(C(F)(F)F)cn1)C2)=NO (stereo not drawn) [5-182],100
23,FC(F)(F)c1ccc(N2CCC(Oc3ccc(Br)cc3)CC2)nc1 [1-19],100
